Test results from the NIST ThermoML archive (doi:10.1021/je400065j).
Numbers after ± are expanded uncertainties.

Assays:
[1] = Liquid, Closed cell (Static) method
[2] = refractive index (Na D-line) (dimensionless); conditions: 293.15 K; 101.33 kPa; Liquid; Standard Abbe refractometry

Structure (SMILES)	vapor or sublimation pressure ([1]; 383.3 K)	vapor or sublimation pressure ([1]; 398.1 K)	vapor or sublimation pressure ([1]; 398.2 K)	vapor or sublimation pressure ([1]; 413.2 K)	refractive index [2]
CCC(C)=O [butanone]	245.6 ± 1.3 kPa	358.5 ± 1.5 kPa	358.5 ± 1.5 kPa	506.6 ± 1.9 kPa	1.3788 ± 0.0007
CCO [ethanol]	315.6 ± 1.7 kPa	–	498.3 ± 2.2 kPa	757 ± 3 kPa	1.3618 ± 0.0007
CO [methanol]	480.7 ± 2.3 kPa	733.7 ± 3.1 kPa	–	1086 ± 4.1 kPa	1.3287 ± 0.0007
